From ChEMBL document CHEMBL1909046, “DrugMatrix in vitro pharmacology data”

Columns and labels:
[1] = target: T1, Alpha-2C adrenergic receptor (Homo sapiens, UniProt P18825); experiment: DRUGMATRIX: Adrenergic Alpha-2C radioligand binding (ligand: [3H] MK-912); format: cell membranes, Sf9, Membrane; settings: sf9
T1 sequence (P18825 whole entry): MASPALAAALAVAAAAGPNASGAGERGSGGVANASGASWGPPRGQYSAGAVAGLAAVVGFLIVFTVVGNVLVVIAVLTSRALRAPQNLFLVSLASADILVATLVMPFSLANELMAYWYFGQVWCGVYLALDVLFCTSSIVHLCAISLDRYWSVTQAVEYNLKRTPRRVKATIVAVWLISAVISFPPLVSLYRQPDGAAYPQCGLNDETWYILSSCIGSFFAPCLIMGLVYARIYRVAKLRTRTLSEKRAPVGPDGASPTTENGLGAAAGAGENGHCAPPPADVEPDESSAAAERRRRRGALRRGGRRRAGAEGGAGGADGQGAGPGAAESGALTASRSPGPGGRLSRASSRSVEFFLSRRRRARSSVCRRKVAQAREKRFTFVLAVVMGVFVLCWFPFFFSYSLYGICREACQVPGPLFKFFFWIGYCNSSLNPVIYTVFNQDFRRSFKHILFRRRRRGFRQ

[2] = DRUGMATRIX: Sodium/nucleoside co-transporter radioligand binding (ligand: nitrobenzylthioinosine); format: cell membranes, Cavia porcellus, Dunkin-Hartley, Cerebral cortex, Membrane; settings: Not Active = under 50% inhibition at 10 µM
[3] = DRUGMATRIX: beta-Lactamase enzyme inhibition (substrate: Nitrocefin); parameters: species or system Bacillus cereus; settings: Not Active = under 50% inhibition at 10 µM
[4] = target: Beta-2 adrenergic receptor (Homo sapiens, UniProt P07550); experiment: DRUGMATRIX: Adrenergic beta2 radioligand binding (ligand: [3H] CGP-12177); format: cell membranes, Membrane; settings: cho; Not Active = under 50% inhibition at 10 µM
Cannabinoid receptor 1 = Cannabinoid receptor 1 (Homo sapiens, UniProt P21554); format: cell membranes, Membrane; settings: chem-1; further: in other assays of this panel Not Active means under 50% inhibition at 10 µM
[5] = target: Mitogen-activated protein kinase 3 (Homo sapiens, UniProt P27361); experiment: DRUGMATRIX: Protein Serine/Threonine Kinase, ERK1 enzyme inhibition (substrate: Myelin Basic Protein); parameters: species or system Escherichia coli; settings: Not Active = under 50% inhibition at 10 µM
[6] = DRUGMATRIX: Platelet-Derived Growth Factor (PDGF) radioligand binding (ligand: [125I] PDGF); format: cell-based; settings: nih3t3; Not Active = under 50% inhibition at 10 µM
[7] = target: T2, Type-2 angiotensin II receptor (Homo sapiens, UniProt P50052); format: cell-based; settings: cho-k1; further: in other assays of this panel Not Active means under 50% inhibition at 10 µM
T2 sequence (P50052 whole entry): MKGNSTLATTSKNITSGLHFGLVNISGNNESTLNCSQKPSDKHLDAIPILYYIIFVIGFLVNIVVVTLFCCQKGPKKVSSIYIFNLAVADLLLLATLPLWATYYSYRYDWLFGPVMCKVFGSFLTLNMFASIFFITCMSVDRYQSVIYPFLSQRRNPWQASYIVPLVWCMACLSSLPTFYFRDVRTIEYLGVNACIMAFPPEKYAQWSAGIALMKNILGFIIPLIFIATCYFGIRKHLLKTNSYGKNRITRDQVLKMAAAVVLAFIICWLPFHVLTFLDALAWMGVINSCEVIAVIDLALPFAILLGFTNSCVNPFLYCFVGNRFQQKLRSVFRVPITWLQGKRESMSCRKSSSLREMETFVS

Cytochrome P450 2A6 = target: T3, Cytochrome P450 2A6 (Homo sapiens, UniProt P11509); settings: bti-tn-5b1-4; further: in other assays of this panel Not Active means under 50% inhibition at 10 µM
T3 sequence (P11509 whole entry): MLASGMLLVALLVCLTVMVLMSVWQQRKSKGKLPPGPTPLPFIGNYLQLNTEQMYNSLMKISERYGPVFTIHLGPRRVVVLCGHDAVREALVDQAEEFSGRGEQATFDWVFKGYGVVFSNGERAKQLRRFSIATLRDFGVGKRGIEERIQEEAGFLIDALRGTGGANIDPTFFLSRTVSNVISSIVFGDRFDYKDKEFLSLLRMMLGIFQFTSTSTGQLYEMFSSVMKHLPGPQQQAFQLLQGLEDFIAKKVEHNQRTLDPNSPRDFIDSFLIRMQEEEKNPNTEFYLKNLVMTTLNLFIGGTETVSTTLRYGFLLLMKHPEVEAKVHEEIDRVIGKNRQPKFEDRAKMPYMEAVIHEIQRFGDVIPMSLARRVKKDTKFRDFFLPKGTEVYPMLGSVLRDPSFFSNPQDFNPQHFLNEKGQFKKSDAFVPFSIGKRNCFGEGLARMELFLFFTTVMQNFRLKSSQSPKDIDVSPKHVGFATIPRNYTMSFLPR

Cytochrome P450 2E1 = Cytochrome P450 2E1 (Homo sapiens, UniProt P05181); settings: bti-tn-5b1-4; further: in other assays of this panel Not Active means under 50% inhibition at 10 µM
[8] = target: T4, C-C chemokine receptor type 4 (Homo sapiens, UniProt P51679); format: cell membranes, Membrane; settings: chem-1; further: in other assays of this panel Not Active means under 50% inhibition at 10 µM
T4 sequence (P51679 whole entry): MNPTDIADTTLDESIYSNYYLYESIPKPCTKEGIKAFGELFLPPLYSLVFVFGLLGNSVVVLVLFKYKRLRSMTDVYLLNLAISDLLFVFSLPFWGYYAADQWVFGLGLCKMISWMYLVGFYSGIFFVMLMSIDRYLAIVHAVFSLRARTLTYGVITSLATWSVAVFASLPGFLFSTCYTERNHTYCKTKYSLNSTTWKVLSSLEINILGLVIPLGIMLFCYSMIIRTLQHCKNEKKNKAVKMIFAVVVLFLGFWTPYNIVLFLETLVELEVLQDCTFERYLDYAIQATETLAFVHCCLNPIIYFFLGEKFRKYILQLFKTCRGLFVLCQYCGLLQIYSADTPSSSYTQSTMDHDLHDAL

[9] = target: T5, Alpha-1B adrenergic receptor (Rattus norvegicus, UniProt P15823); experiment: DRUGMATRIX: Alpha-1B adrenergic receptor radioligand binding (ligand: prazosin); format: cell membranes, Wistar, Liver, Membrane; settings: Not Active = under 50% inhibition at 10 µM
T5 sequence (P15823 whole entry): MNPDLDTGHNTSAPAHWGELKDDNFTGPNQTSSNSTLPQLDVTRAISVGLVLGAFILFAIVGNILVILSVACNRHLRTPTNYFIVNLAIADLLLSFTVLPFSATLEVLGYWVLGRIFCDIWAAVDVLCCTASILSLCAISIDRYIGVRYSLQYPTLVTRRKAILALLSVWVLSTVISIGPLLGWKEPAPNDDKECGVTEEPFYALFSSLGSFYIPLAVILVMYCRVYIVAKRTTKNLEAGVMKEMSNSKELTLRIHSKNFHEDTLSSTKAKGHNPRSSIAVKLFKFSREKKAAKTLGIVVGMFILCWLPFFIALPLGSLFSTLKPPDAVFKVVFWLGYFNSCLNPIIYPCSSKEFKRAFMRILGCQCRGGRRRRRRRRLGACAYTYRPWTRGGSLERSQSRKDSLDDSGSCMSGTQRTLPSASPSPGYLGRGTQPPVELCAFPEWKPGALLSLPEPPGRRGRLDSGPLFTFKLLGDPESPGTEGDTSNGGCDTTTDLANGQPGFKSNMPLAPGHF

Mitogen-activated protein kinase 3, sequence (P27361 whole entry): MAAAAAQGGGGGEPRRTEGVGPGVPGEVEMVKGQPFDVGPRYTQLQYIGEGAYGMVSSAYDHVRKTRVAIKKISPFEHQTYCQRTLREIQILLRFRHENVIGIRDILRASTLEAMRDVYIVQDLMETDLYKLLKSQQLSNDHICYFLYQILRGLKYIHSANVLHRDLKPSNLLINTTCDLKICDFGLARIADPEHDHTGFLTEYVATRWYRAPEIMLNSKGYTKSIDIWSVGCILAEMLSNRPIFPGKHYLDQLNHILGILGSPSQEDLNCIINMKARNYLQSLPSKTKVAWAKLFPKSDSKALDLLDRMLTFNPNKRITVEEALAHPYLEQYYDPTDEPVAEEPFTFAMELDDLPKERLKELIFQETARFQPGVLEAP
Cytochrome P450 2E1, sequence (P05181 whole entry): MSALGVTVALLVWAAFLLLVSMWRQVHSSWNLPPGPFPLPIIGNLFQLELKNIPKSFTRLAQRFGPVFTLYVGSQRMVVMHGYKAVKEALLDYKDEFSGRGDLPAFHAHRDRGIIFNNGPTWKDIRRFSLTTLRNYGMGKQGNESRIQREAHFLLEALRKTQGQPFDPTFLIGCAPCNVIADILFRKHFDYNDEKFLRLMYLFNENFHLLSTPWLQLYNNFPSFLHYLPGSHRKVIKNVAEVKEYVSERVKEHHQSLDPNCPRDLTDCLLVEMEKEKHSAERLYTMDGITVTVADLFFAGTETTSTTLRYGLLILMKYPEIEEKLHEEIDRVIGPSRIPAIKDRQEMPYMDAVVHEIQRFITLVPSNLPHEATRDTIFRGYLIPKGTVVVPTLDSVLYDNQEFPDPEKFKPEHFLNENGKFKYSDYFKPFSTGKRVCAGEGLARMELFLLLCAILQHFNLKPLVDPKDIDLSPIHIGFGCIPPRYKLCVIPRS
Cannabinoid receptor 1, sequence (P21554 whole entry): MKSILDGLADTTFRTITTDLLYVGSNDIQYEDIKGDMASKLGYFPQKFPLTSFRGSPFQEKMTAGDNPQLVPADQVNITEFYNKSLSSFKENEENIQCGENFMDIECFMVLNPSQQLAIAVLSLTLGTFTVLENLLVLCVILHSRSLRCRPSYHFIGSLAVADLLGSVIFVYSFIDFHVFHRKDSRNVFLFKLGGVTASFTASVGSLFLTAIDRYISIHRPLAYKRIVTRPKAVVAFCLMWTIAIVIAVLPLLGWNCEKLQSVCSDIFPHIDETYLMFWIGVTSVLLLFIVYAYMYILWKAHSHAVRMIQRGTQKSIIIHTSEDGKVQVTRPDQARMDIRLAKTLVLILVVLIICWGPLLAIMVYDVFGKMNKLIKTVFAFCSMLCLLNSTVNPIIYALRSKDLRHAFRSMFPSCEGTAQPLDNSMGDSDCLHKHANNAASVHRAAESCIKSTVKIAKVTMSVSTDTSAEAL

| Compound | IC50 [1] | IC50 [2] | Ki [2] | IC50 [3] | Ki [3] | IC50 [4] | IC50 (Cannabinoid receptor 1) | IC50 [5] | IC50 [6] | Ki [6] | IC50 [7] | IC50 (Cytochrome P450 2A6) | Ki (Cytochrome P450 2A6) | IC50 (Cytochrome P450 2E1) | Ki (Cytochrome P450 2E1) | IC50 [8] | IC50 [9] | other results |
| --- | --- | --- | --- | --- | --- | --- | --- | --- | --- | --- | --- | --- | --- | --- | --- | --- | --- | --- |
| CN[C@H](CC(C)C)C(=O)N[C@H]1C(=O)N[C@@H](CC(N)=O)C(=O)N[C@H]2C(=O)N[C@H]3C(=O)N[C@H](C(=O)N[C@H](C(=O)O)c4cc(O)cc(O)c4-c4cc3ccc4O)[C@H](O)c3ccc(c(Cl)c3)Oc3cc2cc(c3O[C@@H]2O[C@H](CO)[C@@H](O)[C@H](O)[C@H]2O[C@H]2C[C@](C)(N)[C@H](O)[C@H](C)O2)Oc2ccc(cc2Cl)[C@H]1O [VANCOMYCIN] | Not Active | Not Active | Not Active | Not Active | Not Active | Not Active | Not Active | Not Active | Not Active | Not Active | Not Active | Not Active | Not Active | Not Active | Not Active | Not Active | Not Active |  |
| CC(C)[C@H](N)C(=O)OCCOCn1cnc2c(=O)nc(N)[nH]c21 [VALACYCLOVIR] | Not Active | Not Active | Not Active | Not Active | Not Active | Not Active | Not Active | Not Active | Not Active | Not Active | Not Active | Not Active | Not Active | Not Active | Not Active | Not Active | Not Active |  |
| COS(C)(=O)=O [METHANESULFONIC ACID METHYL ESTER] | Not Active | Not Active | Not Active | Not Active | Not Active | Not Active | Not Active | Not Active | Not Active | Not Active | Not Active | Not Active | Not Active | Not Active | Not Active | Not Active | Not Active |  |
| CC1CN(c2cc3c(cc2F)c(=O)c(C(=O)O)cn3-c2ccc(F)cc2F)CCN1 (stereo not drawn) [TEMAFLOXACIN] | Not Active | Not Active | Not Active | Not Active | Not Active | Not Active | Not Active | Not Active | Not Active | Not Active | Not Active | Not Active | Not Active | Not Active | Not Active | Not Active | Not Active |  |
| CN(C)[C@@H]1C(O)=C(C(N)=O)C(=O)[C@@]2(O)C(O)=C3C(=O)c4c(O)cccc4[C@@](C)(O)[C@H]3C[C@@H]12 [TETRACYCLINE] | Not Active | Not Active | Not Active | Not Active | Not Active | Not Active | Not Active | Not Active | Not Active | Not Active | Not Active | Not Active | Not Active | Not Active | Not Active | Not Active | Not Active |  |
| COc1cc(C(=O)NC2CCCNC2)cc(OC)c1OC (stereo not drawn) [TROXIPIDE] | Not Active | Not Active | Not Active | Not Active | Not Active | Not Active | Not Active | Not Active | Not Active | Not Active | Not Active | Not Active | Not Active | Not Active | Not Active | Not Active | Not Active |  |
| IVERMECTIN |  | Not Active | Not Active | Not Active | Not Active | Not Active | Not Active | Not Active | Not Active | Not Active | Not Active | Not Active | Not Active | Not Active | Not Active | Not Active | Not Active | IC50 ([1]; read-out: IC50): 3920 nM; Ki ([1]; read-out: Ki): 570 nM; Ki [4]: Not Active; Ki (Cannabinoid receptor 1): Not Active; Ki [5]: Not Active; Ki [7]: Not Active; Ki [8]: Not Active; Ki [9]: Not Active |
| CC1(C)[C@H]2CC[C@]1(C)C(=O)C2 [(-)-CAMPHOR] | Not Active | Not Active | Not Active | Not Active | Not Active | Not Active | Not Active | Not Active | Not Active | Not Active | Not Active | Not Active | Not Active | Not Active | Not Active | Not Active | Not Active |  |
